In this experiment the test system is PC12 cells. In words: Microchip amperometric detection of electrically evoked exocytotic catecholamine release. It counts as cell-based, rat.

Procedure: Cells were cultured in suspension in 75 mm^2 tissue culture flasks with RPMI 1640 (Invitrogen, Carlsbad, Calif.) cell culture media supplemented with 15% horse serum (Invitrogen), 2.5% fetal bovine serum (Invitrogen) and 0.02 mg/ml gentamicin (Invitrogen). Flasks were kept in an incubator at 37° C. with 5% CO2. Media was refreshed every 3-4 days, retaining 10% of the existing media each time. Cells were mechanically agitated to break up cell clusters through repeated washing through a pipettor tip. Additional separation was achieved through weekly, overnight treatment of the cells in 1 mM ethylene glycol tetraacetic acid (EGTA, Sigma-Aldrich, St. Louis, Mo.) with subsequent washing and trituration.
Prior to use, cells were transferred to Locke's buffer consisting of 154 mM NaCl, 5.6 mM KCl, 3.6 mM NaHCO3, 2.3 mM CaCl2, 5.6 mM glucose, and 5 mM Hepes (pH 7.4). An aliquot of the solution was immediately transferred to the MEMS device via manual pipette aspiration. […]
Neurotransmitter release from the PC12 cells was measured using a three electrode arrangement with a Au WE (FIGS. 3A and 3B, WE), a Au counter electrode (FIGS. 3A and 3B, CE) and silver/silver chloride (Ag/AgCl) reference electrode (RE) with all controlled by a NPI VA-10 potentiostat (National Precision Instruments (NPI), Tamm, Germany). […]

As to `C=C1[C@@H](C)[C@H]2[C@H](Cc3ccccc3)NC(=O)[C@]23[C@H](OC(C)=O)/C=C/[C@@](C)(O)C(=O)[C@@H](C)C/C=C/[C@H]3[C@@H]1O` [cytochalasin-D], the “exocytosis activity after exposure to the actin-disrupting agent” value (population of PC12 cells exposed to cytochalasin-D, data not shown) is on record as “did not block”. `C[C@@H]1C[C@H]2[C@@H]3CCC4=CC(=O)C=C[C@]4(C)[C@@]3(F)[C@@H](O)C[C@]2(C)[C@@]1(O)C(=O)CO` [dexamethasone]: the “cube root of quantal yield” value (PC12 cells differentiated with 5 μM dexamethasone, n=209 cells, k=25,463 spikes, WE +700 mV vs Ag/AgCl) came out at 6.6±0.08 zmol^1/3.
